Results from patent US10759810B2 (AO “TATKHIMFARMPREPARATY”, priority 2016, dated 2020).
Values after ≈ are worked out from the molar mass of the structure shown.

Experiments:
[1] = test system: S. aureus MRSA 983; assay: MIC on clinical strain; type: cell-based, Staphylococcus aureus; conditions: inoculum 10^7 CFU/ml
Procedure: (§1) Measurement of antibacterial activity was carried out on the strains of Staphylococcus aureus ATCC 29213 (museum strain), Staphylococcus epidermidis (clinical isolate), Micrococcus luteus (clinical isolate), Bacillus subtilis 168 (museum strain), Escherichia coli ATCC 25922 (museum strain), Salmonella typhimurium TA100 (museum strain), Pseudomonas aeruginosa ATCC 27853 (museum strain). A comparative assessment of the spectrum of antibacterial action on reference strains and clinical isolates of gram-positive microorganisms was carried out using a micromethod for determining the minimum inhibitory concentration (MIC) using serial dilutions in Mueller-Hinton broth using 96-well sterile plates.
(§2) The first lowest concentration of the antibiotic (from a series of successive dilutions), where bacterial growth is not visually determined, is considered to be the minimum inhibitory concentration (MIC).
(§3) For the preparation of inoculum (infectious material used for artificial contamination), intended for the study of antibacterial activity, was used a pure daily culture of bacteria grown on a dense nutrient medium (agar LB medium). In a sterile isotonic solution of sodium chloride, a suspension of microorganisms was prepared, adjusting the inoculum density to 0.5 according to the McFarland standard (1.5·10^8 CFU/ml). Then, the resulting inoculum was diluted to a concentration of 10^7 CFU/ml with LB-broth. The inoculum was used for 15 minutes after preparation; the purity of the bacterial strains was monitored before each experiment.
(§4) 100 μl of Muller-Hinton broth was added to the wells of each plate; the test base was introduced into the first well at a concentration of 128 μg/ml in a volume of 100 μl and its concentration was adjusted to 0.25 μg/ml by consecutive two-fold dilution. […] Each preparation in the experiment was titrated three times. […] In addition, the purity of nutrient media and solvents was monitored. The plates were incubated in a thermostat at […] for 24 hours.
(§5) The growth of cultures was assessed visually, comparing the growth of microorganisms in the presence of test compounds with the growth of culture without them.

[2] = test system: S. aureus MRSA 1131; assay: MIC on clinical strain; type: cell-based, Staphylococcus aureus; conditions: inoculum 10^7 CFU/ml
Procedure: as §1, §2, §3, §4, §5

[3] = test system: S. aureus MRSA 1053; assay: MIC on clinical strain; type: cell-based, Staphylococcus aureus; conditions: inoculum 10^7 CFU/ml
Procedure: as §1, §2, §3, §4, §5

[4] = test system: S. aureus MRSA 1143; assay: MIC on clinical strain; type: cell-based, Staphylococcus aureus; conditions: inoculum 10^7 CFU/ml
Procedure: as §1, §2, §3, §4, §5

[5] = test system: S. aureus MRSA 967; assay: MIC on clinical strain; type: cell-based, Staphylococcus aureus; conditions: inoculum 10^7 CFU/ml
Procedure: as §1, §2, §3, §4, §5

[6] = test system: S. aureus MRSA 1163; assay: MIC on clinical strain; type: cell-based, Staphylococcus aureus; conditions: inoculum 10^7 CFU/ml
Procedure: as §1, §2, §3, §4, §5

[7] = test system: S. aureus MRSA 1173; assay: MIC on clinical strain; type: cell-based, Staphylococcus aureus; conditions: inoculum 10^7 CFU/ml
Procedure: as §1, §2, §3, §4, §5

[8] = test system: S. aureus MRSA 1130; assay: MIC on clinical strain; type: cell-based, Staphylococcus aureus; conditions: inoculum 10^7 CFU/ml
Procedure: as §1, §2, §3, §4, §5

[9] = test system: S. aureus MRSA 981; assay: MIC on clinical strain; type: cell-based, Staphylococcus aureus; conditions: inoculum 10^7 CFU/ml
Procedure: as §1, §2, §3, §4, §5

[10] = test system: S. aureus MRSA 1168; assay: MIC on clinical strain; type: cell-based, Staphylococcus aureus; conditions: inoculum 10^7 CFU/ml
Procedure: as §1, §2, §3, §4, §5

[11] = test system: S. aureus MRSA 2020; assay: MIC on clinical strain; type: cell-based, Staphylococcus aureus; conditions: inoculum 10^7 CFU/ml
Procedure: as §1, §2, §3, §4, §5

[12] = test system: S. aureus MRSA 1065; assay: MIC on clinical strain; type: cell-based, Staphylococcus aureus; conditions: inoculum 10^7 CFU/ml
Procedure: as §1, §2, §3, §4, §5

[13] = test system: Staphylococcus aureus ATCC 29213 (museum strain); assay: MIC, serial dilutions in Mueller-Hinton broth; type: cell-based; conditions: inoculum 10^7 CFU/ml, gram-positive; for MIC: Staphylococcus aureus, ATCC29213, read-out: MIC, S. aureus
Procedure: as §1, §2, §3, §4, §5

[14] = test system: Salmonella typhimurium TA100 (museum strain); assay: MIC, serial dilutions in Mueller-Hinton broth; type: cell-based; conditions: inoculum 10^7 CFU/ml, gram-negative; for MIC: Salmonella enterica, TYPHIMURIUM, read-out: MIC, S. typhimurium
Procedure: as §1, §2, §3, §4, §5

[15] = test system: Escherichia coli ATCC 25922 (museum strain); assay: MIC, serial dilutions in Mueller-Hinton broth; type: cell-based; conditions: inoculum 10^7 CFU/ml, gram-negative; for MIC: Escherichia coli, ATCC25922, read-out: MIC, E. coli
Procedure: as §1, §2, §3, §4, §5

[16] = test system: Bacillus subtilis 168 (museum strain); assay: MIC, serial dilutions in Mueller-Hinton broth; type: cell-based; conditions: inoculum 10^7 CFU/ml, gram-positive; for MIC: Bacillus subtilis, read-out: MIC, B. subtilis
Procedure: as §1, §2, §3, §4, §5

[17] = test system: Pseudomonas aeruginosa ATCC 27853 (museum strain); assay: MIC, serial dilutions in Mueller-Hinton broth; type: cell-based; conditions: inoculum 10^7 CFU/ml, gram-negative; for MIC: Pseudomonas aeruginosa, ATCC27853, read-out: MIC, P. aerugenosa
Procedure: as §1, §2, §3, §4, §5

[18] = test system: Micrococcus luteus (clinical isolate); assay: MIC, serial dilutions in Mueller-Hinton broth; type: cell-based; conditions: inoculum 10^7 CFU/ml, gram-positive; for MIC: Micrococcus luteus, read-out: MIC, M. luteus
Procedure: as §1, §2, §3, §4, §5

[19] = test system: Staphylococcus epidermidis (clinical isolate); assay: MIC, serial dilutions in Mueller-Hinton broth; type: cell-based; conditions: inoculum 10^7 CFU/ml, gram-positive; for MIC: Staphylococcus epidermidis, read-out: MIC, S. epidermidis
Procedure: as §1, §2, §3, §4, §5

Compound | MIC, S. aureus [13] [µg/mL] | MIC, S. typhimurium [14] [µg/mL] | MIC, E. coli [15] [µg/mL] | MIC, B. subtilis [16] [µg/mL] | MIC, P. aerugenosa [17] [µg/mL] | MIC, M. luteus [18] [µg/mL] | MIC, S. epidermidis [19] [µg/mL] | other results
CO/N=C(\C(=O)N[C@@H]1C(=O)N2C(C(=O)O)=C(CSc3nc(=O)c(O)nn3C)CS[C@H]12)c1csc(N)n1 [Ceftriaxon, ceftriaxone] |  |  |  |  |  |  |  | The value of the MIC, S. aureus MRSA 983 [1]: >64 µg/mL; The value of the MIC, S. aureus MRSA 1131 [2]: >64 µg/mL; The value of the MIC, S. aureus MRSA 1053 [3]: >64 µg/mL; The value of the MIC, S. aureus MRSA 1143 [4]: >64 µg/mL; The value of the MIC, S. aureus MRSA 967 [5]: >64 µg/mL; The value of the MIC, S. aureus MRSA 1163 [6]: >64 µg/mL; The value of the MIC, S. aureus MRSA 1173 [7]: >64 µg/mL; The value of the MIC, S. aureus MRSA 1130 [8]: >64 µg/mL; The value of the MIC, S. aureus MRSA 981 [9]: >64 µg/mL; The value of the MIC, S. aureus MRSA 1168 [10]: 0.5 µg/mL; The value of the MIC, S. aureus MRSA 2020 [11]: 2 µg/mL; The value of the MIC, S. aureus MRSA 1065 [12]: >64 µg/mL
Cc1ncc(CN2CCN(c3cc4c(cc3F)c(=O)c(C(=O)O)cn4C3CC3)CC2)c2c1OC(C)(C)OC2 [Compound I-1, 1-cyclopropyl-6-fluoro-7-(4-((2,2,8-trimethyl-4H-[1,3]dioxino-[4,5-c]pyridine-5-yl)methyl)piperazinyl)-4-oxo-1,4-dihydroquinolin-3-carboxylic acid] | 32 (≈ 61.2 µM) | 4 (≈ 7.65 µM) | 64 (≈ 122 µM) | <2 | >64 | 32 (≈ 61.2 µM) | 16 (≈ 30.6 µM) | 
Cc1ncc(CSCCN2CCN(c3cc4c(cc3F)c(=O)c(C(=O)O)cn4C3CC3)CC2)c2c1OC(C)(C)OC2 [Compound I-4, 1-cyclopropyl-6-fluoro-7-(4-(2-(((2,2,8-trimethyl-4H-[1,3]dioxino-[4,5-c]pyridine-5-yl)methyl)sulfanyl)ethyl)piperazinyl)-4-oxo-1,4-dihydroquinolin-3-carboxylic acid] | 16 (≈ 27.5 µM) | 4 (≈ 6.86 µM) | 64 (≈ 110 µM) | <2 | >64 | 8 (≈ 13.7 µM) | 32 (≈ 54.9 µM) | 
Cc1ncc(CSCCN2CCN(c3cc4c(cc3F)c(=O)c(C(=O)O)cn4C3CC3)CC2)c(CO)c1O [Compound I-5, 1-cyclopropyl-6-fluoro-7-(4-(2-(((5-hydroxy-4-hydroxymethyl-6-methylpyridine-3-yl)methyl)sulfanyl)ethyl)piperazinyl)-4-oxo-1,4-dihydroquinolin-3-carboxylic acid] | 8 (≈ 14.7 µM) | 4 (≈ 7.37 µM) | 8 (≈ 14.7 µM) | <2 | 32 (≈ 59 µM) | 8 (≈ 14.7 µM) | 8 (≈ 14.7 µM) | 
Cc1ncc(CN2CCN(c3cc4c(cc3F)c(=O)c(C(=O)O)cn4C3CC3)CC2)c2c1OC(C)OC2 (stereo not shown) [Compound I-6, 1-cyclopropyl-6-fluoro-7-(4-((2,8-dimethyl-4H-[1,3]dioxino-[4,5-c]pyridine-5-yl)methyl)piperazinyl)-4-oxo-1,4-dihydroquinolin-3-carboxylic acid] | 8 (≈ 15.7 µM) | 4 (≈ 7.87 µM) | >64 | <2 | >64 | 8 (≈ 15.7 µM) | 8 (≈ 15.7 µM) | 
CCCC1OCc2c(CN3CCN(c4cc5c(cc4F)c(=O)c(C(=O)O)cn5C4CC4)CC3)cnc(C)c2O1 (stereo not shown) [Compound I-7, 1-cyclopropyl-6-fluoro-7-(4-((8-methyl-2-propyl-4H-[1,3]dioxino-[4,5-c]pyridine-5-yl)methyl)piperazinyl)-4-oxo-1,4-dihydroquinolin-3-carboxylic acid] | 64 (≈ 119 µM) | 4 (≈ 7.45 µM) | >64 | <2 | >64 | 64 (≈ 119 µM) | 64 (≈ 119 µM) | 
CCCCCCCCC1OCc2c(CN3CCN(c4cc5c(cc4F)c(=O)c(C(=O)O)cn5C4CC4)CC3)cnc(C)c2O1 (stereo not shown) [Compound I-8, 1-cyclopropyl-6-fluoro-7-(4-((8-methyl-2-octyl-4H-[1,3]dioxino-[4,5-c]pyridine-5-yl)methyl)piperazinyl)-4-oxo-1,4-dihydroquinolin-3-carboxylic acid] | 32 (≈ 52.7 µM) | 4 (≈ 6.59 µM) | >64 | <2 | >64 | 64 (≈ 105 µM) | 64 (≈ 105 µM) | 
Cc1ncc(CN2CCN(c3cc4c(cc3F)c(=O)c(C(=O)O)cn4C3CC3)CC2)c2c1OCOC2 [Compound I-12, 1-cyclopropyl-6-fluoro-7-(4-((8-methyl-4H-[1,3]dioxino [4,5-c]pyridine-5-yl)methyl)piperazine-1-yl)-4-oxo-1,4-dihydroquinolin-3-carboxylic acid] |  |  |  |  |  |  |  | MIC [13]: 1 µg/mL (≈ 2.02 µM); MIC [14]: 0.5 µg/mL (≈ 1.01 µM); MIC [15]: 8 µg/mL (≈ 16.2 µM); MIC [16]: < 2 µg/mL; MIC [17]: 32 µg/mL (≈ 64.7 µM); MIC [18]: 16 µg/mL (≈ 32.4 µM); MIC [19]: 0.5 µg/mL (≈ 1.01 µM)
COc1c(N2C[C@@H]3CCCN[C@@H]3C2)c(F)cc2c(=O)c(C(=O)O)cn(C3CC3)c12 [Moxifloxacin, moxifloxacin, reference compound] |  |  |  |  |  |  |  | MIC [13]: 1 µg/mL (≈ 2.49 µM); MIC [14]: 0.5 µg/mL (≈ 1.25 µM); MIC [15]: 2 µg/mL (≈ 4.98 µM); MIC [16]: < 2 µg/mL; MIC [17]: 8 µg/mL (≈ 19.9 µM); MIC [18]: 4 µg/mL (≈ 9.96 µM); MIC [19]: 4 µg/mL (≈ 9.96 µM)

Further lines, with some results ahead:

MIC, S. aureus [13] [µg/mL] | MIC, S. typhimurium [14] [µg/mL] | MIC, E. coli [15] [µg/mL] | MIC, B. subtilis [16] [µg/mL] | MIC, P. aerugenosa [17] [µg/mL] | MIC, M. luteus [18] [µg/mL] | MIC, S. epidermidis [19] [µg/mL] | Compound | other results
8 (≈ 14.5 µM) | 4 (≈ 7.24 µM) | 64 (≈ 116 µM) | <2 | >64 | 8 (≈ 14.5 µM) | 8 (≈ 14.5 µM) | Cc1nc(CN2CCN(c3cc4c(cc3F)c(=O)c(C(=O)O)cn4C3CC3)CC2)c(CO)c2c1OC(C)(C)OC2 [Compound I-10, 1-cyclopropyl-6-fluoro-7-(4-((5-hydroxymethyl-2,2,8-trimethyl-4H-[1,3]dioxino [4,5-c]pyridine-6-yl)methyl)piperazinyl)-4-oxo-1,4-dihydroquinolin-3-carboxylic acid] | 
64 (≈ 125 µM) | 4 (≈ 7.8 µM) | 64 (≈ 125 µM) | <2 | >64 | 32 (≈ 62.4 µM) | 32 (≈ 62.4 µM) | Cc1nc(CN2CCN(c3cc4c(cc3F)c(=O)c(C(=O)O)cn4C3CC3)CC2)c(CO)c(CO)c1O [Compound I-11, 1-cyclopropyl-6-fluoro-7-(4-((5-hydroxy-3,4-bis(hydroxymethyl)-6-methylpyridine-2-yl)methyl)piperazinyl)-4-oxo-1,4-dihydroquinolin-3-carboxylic acid] | 
